From patent US9616063B2, “1-[2-(aminomethyl)benzyl]-2-thioxo-1,2,3,5-tetrahydro-4H-pyrrolo[3,2-d]pyrimidin-4-ones as inhibitors of myeloperoxidase” (AstraZeneca AB, priority 2014, dated 2017)

How the values were obtained:
[1] = target: MPO purified from the human cell line HL60 (Homo sapiens (Human), UniProt P05164); experiment: MPO inhibition, Test A (loss of ascorbate, absorbance at 260 nm); assay type: biochemical; details: absorbance at 260 nm 20 minutes after substrate addition
Description: (§1) Methods for the determination of MPO inhibitory activity are disclosed in WO 02/090575. The pharmacological activity of compounds disclosed herein was tested in the following screen (Test A) in which the compounds were tested in the presence of ascorbate, which reacts with MPO-derived hypochlorous acid (HOCl) to form dehydro-ascorbate. The loss of ascorbate is followed by measuring absorbance at 260 nm.
(§2) Assay buffer: 100 μM diethyl triamine pentaacetic acid (DTPA) in buffer consisting of 10 mM Na2HPO4/NaH2PO4, 3 mM KCl in 140 mM NaCl, pH 7.4.
(§3) Enzyme solution: MPO purified from the human cell line HL60, 1.38 nM (final concentration 0.7 nM) and L-ascorbate, 100 μM (final concentration 50 μM) in Assay buffer
(§4) Substrate solution: H2O2, 98 μM (final concentration 49 μM) Forty μL of the enzyme solution was added to 0.6 μL compound serially diluted in DMSO. Absorbance was measured at 260 nm to obtain a compound blank value. After an additional 10 min, 40 μL of the substrate solution was added and the absorbance at 260 nm was recorded between 4 and 40 min to obtain kinetic readings of enzyme activity.

[2] = system: MPO purified from the human cell line HL60; experiment: as above; assay type: biochemical; details: ratio TPO to MPO, selectivity for MPO over TPO
Description: as §1, §2, §3, §4

[3] = target: baculovirus-expressed recombinant human TPO (Homo sapiens (Human), UniProt P07202); experiment: TPO inhibition (hypoiodous acid production, absorbance at 353 nm); assay type: biochemical
Description: To detect thyroid peroxidase (TPO) inhibitory activity, the production of hypoiodous acid (HOI) was quantified. HOI was detected by reacting it with methionine, which is converted to dehydro-methionine, which in turn is detected by reacting it with excess iodide at acidic pH. The reaction converts I^− to I3^− that has absorbance at 353 nm. In brief, 0.6 μL compound serially diluted in DMSO was added to 25 μL 50 nM baculovirus-expressed recombinant human TPO (obtained from RSR Ltd, Cardiff, UK) in assay buffer (100 mM Na2HPO4/NaH2PO4, pH 7.4), after which absorbance at 353 nm was read to obtain a blank value. The enzyme reaction was initiated by the addition of 25 μL of a mix consisting of 2 mM methionine, 20 μM NaI and 100 μM H2O2 in assay buffer, and stopped by the addition of 10 μL catalase, 0.25 mg/mL. […] IC50 values of the compounds tested were obtained using standard procedures.

activated MPO = activated MPO (Homo sapiens (Human), UniProt P05164); experiment: Urate production from xanthine by activated MPO in vitro (LC-MS); assay type: biochemical; details: activated MPO incubated with xanthine and titrated compound for 80 min
Excerpt: The dotted line represents the urate formed in the presence of unactivated MPO.
In addition to MPOs role in maintaining elevated urate levels due to poor perfusion as discussed above, we also propose that MPO per se may generate urate by oxidizing xanthine in concert with xanthine oxidase.

[4] = Plasma urate levels in Healthy Volunteers after MPO inhibitor treatment (clinical trial); assay type: in vivo, human; details: daily dose for 10 days, FIG. 2, NCT00914303
Description: Subjects received placebo or the indicated daily dose for 10 days, and the difference in plasma urate levels versus baseline was calculated. Each symbol represents one subject.

[5] = healthy subjects, clinical trial, data not shown; cited from earlier work

Chain of MPO purified from the human cell line HL60 (Homo sapiens (Human), UniProt P05164) (P05164 whole entry, looked up, change not shown): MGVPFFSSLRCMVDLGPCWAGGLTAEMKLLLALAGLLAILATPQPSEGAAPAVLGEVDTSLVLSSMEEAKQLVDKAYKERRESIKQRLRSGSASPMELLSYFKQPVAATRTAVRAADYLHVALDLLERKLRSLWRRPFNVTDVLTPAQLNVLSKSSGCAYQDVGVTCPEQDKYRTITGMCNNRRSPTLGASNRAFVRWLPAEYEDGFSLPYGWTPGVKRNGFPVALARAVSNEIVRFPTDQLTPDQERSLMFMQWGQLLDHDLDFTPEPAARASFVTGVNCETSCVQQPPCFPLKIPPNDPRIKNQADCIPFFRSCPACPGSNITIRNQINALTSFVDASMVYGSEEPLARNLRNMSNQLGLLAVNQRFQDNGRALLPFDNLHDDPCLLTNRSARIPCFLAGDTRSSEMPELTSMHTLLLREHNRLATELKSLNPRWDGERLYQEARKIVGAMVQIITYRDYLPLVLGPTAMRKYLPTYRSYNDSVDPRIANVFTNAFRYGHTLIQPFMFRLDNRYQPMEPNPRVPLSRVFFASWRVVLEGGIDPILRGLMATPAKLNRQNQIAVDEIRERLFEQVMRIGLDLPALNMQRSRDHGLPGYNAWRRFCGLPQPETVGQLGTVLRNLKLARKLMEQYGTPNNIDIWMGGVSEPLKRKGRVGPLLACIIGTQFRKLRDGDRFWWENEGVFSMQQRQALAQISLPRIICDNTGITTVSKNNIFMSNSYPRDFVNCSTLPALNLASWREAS
Chain of MPO purified from the human cell line HL60 (Homo sapiens (Human), UniProt P05164) (P05164 whole entry, looked up, change not shown): as above
Chain of baculovirus-expressed recombinant human TPO (P07202 19-933): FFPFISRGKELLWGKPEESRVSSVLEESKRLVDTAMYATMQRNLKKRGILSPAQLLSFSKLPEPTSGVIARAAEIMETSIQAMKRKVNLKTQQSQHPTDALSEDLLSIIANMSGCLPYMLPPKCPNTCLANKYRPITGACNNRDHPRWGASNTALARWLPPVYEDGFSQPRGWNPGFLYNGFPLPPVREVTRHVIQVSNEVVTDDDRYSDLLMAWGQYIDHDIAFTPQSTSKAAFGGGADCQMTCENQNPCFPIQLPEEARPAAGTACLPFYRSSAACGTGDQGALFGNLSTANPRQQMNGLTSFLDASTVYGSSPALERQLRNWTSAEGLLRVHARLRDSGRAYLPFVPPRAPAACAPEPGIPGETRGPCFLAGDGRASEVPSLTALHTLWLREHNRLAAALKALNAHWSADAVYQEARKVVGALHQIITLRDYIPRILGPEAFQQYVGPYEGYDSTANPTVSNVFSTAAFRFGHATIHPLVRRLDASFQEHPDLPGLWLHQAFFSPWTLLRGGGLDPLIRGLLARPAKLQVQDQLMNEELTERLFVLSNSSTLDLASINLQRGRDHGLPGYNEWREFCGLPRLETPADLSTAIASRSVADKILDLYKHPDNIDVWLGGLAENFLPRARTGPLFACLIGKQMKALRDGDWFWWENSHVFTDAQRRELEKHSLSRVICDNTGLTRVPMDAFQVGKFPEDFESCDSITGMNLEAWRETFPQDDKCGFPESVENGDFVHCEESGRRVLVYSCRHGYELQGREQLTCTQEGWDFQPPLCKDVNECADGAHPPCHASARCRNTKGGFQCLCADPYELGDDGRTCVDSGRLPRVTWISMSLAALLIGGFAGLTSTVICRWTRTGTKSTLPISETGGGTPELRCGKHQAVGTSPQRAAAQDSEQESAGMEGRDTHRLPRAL
Chain of activated MPO (P05164 49-745): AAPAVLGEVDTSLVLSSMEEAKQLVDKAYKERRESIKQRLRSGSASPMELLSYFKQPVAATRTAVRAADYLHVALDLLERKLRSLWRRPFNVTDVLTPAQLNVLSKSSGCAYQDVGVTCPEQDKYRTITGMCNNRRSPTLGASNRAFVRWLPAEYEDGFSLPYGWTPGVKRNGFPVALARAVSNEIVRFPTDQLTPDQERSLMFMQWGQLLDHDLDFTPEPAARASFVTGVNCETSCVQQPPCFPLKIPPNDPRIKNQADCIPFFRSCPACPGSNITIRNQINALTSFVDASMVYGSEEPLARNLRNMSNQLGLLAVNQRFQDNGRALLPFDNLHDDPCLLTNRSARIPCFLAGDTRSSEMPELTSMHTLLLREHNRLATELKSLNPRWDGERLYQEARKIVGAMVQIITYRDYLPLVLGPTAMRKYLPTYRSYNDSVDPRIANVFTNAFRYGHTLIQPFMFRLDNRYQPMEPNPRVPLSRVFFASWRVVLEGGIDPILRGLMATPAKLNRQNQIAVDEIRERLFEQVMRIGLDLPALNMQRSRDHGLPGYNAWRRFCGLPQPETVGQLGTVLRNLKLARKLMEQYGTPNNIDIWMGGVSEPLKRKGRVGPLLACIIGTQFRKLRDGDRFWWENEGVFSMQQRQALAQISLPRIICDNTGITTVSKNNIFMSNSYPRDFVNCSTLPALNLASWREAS

IC50 [1] [µM] | IC50 (TPO)/IC50 (MPO) [2] | IC50 [3] [µM] | inhibition of urate production by activated MPO (activated MPO) | Structure (SMILES) | reduction of plasma urate levels versus baseline [4] | reduction of urate levels [5]
0.019 | 468 | 8.9 |  | CNC(C)c1cc(Cl)ccc1Cn1c(=S)[nH]c(=O)c2[nH]ccc21 (stereo not shown) [Example 5, 1-{4-Chloro-2-[1-(methylamino)ethyl]benzyl}-2-thioxo-1,2,3,5-tetrahydro-4H-pyrrolo[3,2-d]pyrimidin-4-one] |  | 
 |  | 68 |  | C[C@H](N)c1cc(Cl)ccc1Cn1c(=S)[nH]c(=O)c2[nH]ccc21 [Example 4b, 1-{2-[(1S)-1-Aminoethyl]-4-chlorobenzyl}-2-thioxo-1,2,3,5-tetrahydro-4H-pyrrolo[3,2-d]pyrimidin-4-one] |  | 
0.0086 | 512 | 4.4 |  | CC[C@@H](N)c1cc(Cl)ccc1Cn1c(=S)[nH]c(=O)c2[nH]ccc21 [Example 1, 1-{2-[(1R)-1-Aminopropyl]-4-chlorobenzyl}-2-thioxo-1,2,3,5-tetrahydro-4H-pyrrolo[3,2-d]pyrimidin-4-one] |  | 
0.049 | 224 | 11 |  | CNCc1cc(C(F)(F)F)ccc1Cn1c(=S)[nH]c(=O)c2[nH]ccc21 [Example 15, 1-{2-[(Methylamino)methyl]-4-(trifluoromethyl)benzyl}-2-thioxo-1,2,3,5-tetrahydro-4H-pyrrolo[3,2-d]pyrimidin-4-one] |  | 
 |  | 11 |  | NCc1cc(Cl)ccc1Cn1c(=S)[nH]c(=O)c2[nH]ccc21 [Example 7, 1-[2-(Aminomethyl)-4-chlorobenzyl]-2-thioxo-1,2,3,5-tetrahydro-4H-pyrrolo[3,2-d]pyrimidin-4-one] |  | 
0.054 | 852 | 46 |  | CC(C)CNCc1ccccc1Cn1c(=S)[nH]c(=O)c2[nH]ccc21 [Example 12, 1-(2-{[(2-Methylpropyl)amino]methyl}benzyl)-2-thioxo-1,2,3,5-tetrahydro-4H-pyrrolo[3,2-d]pyrimidin-4-one] |  | 
0.013 | 952 | 13 |  | CNCc1cc(Cl)ccc1Cn1c(=S)[nH]c(=O)c2[nH]ccc21 [Example 8, 1-{4-Chloro-2-[(methylamino)methyl]benzyl}-2-thioxo-1,2,3,5-tetrahydro-4H-pyrrolo[3,2-d]pyrimidin-4-one] |  | 
0.024 | 1609 | 38 |  | CC(C)NCc1ccccc1Cn1c(=S)[nH]c(=O)c2[nH]ccc21 [Example 13, 1-{2-[(Propan-2-ylamino)methyl]benzyl}-2-thioxo-1,2,3,5-tetrahydro-4H-pyrrolo[3,2-d]pyrimidin-4-one] |  | 
 |  | 4.3 | concentration-dependently inhibited | C[C@@H](N)c1cc(Cl)ccc1Cn1c(=S)[nH]c(=O)c2[nH]ccc21 [Example 3, 1-{2-[(1R)-1-Aminoethyl]-4-chlorobenzyl}-2-thioxo-1,2,3,5-tetrahydro-4H-pyrrolo[3,2-d]pyrimidin-4-one] |  | 
 |  |  |  | CC(C)OCCn1c(=S)[nH]c(=O)c2[nH]ccc21 [AZD3241] | dose-dependently reduced urate levels | 
0.022 | 455 | 10 |  | CCNCc1cc(Cl)ccc1Cn1c(=S)[nH]c(=O)c2[nH]ccc21 [Example 6, 1-{4-Chloro-2-[(ethylamino)methyl]benzyl}-2-thioxo-1,2,3,5-tetrahydro-4H-pyrrolo[3,2-d]pyrimidin-4-one] |  | 
 |  | 8.8 |  | CC(N)c1cc(Cl)ccc1Cn1c(=S)[nH]c(=O)c2[nH]ccc21 (racemic) [Example 2, 1-[2-(1-Aminoethyl)-4-chlorobenzyl]-2-thioxo-1,2,3,5-tetrahydro-4H-pyrrolo[3,2-d]pyrimidin-4-one] |  | 
0.01 | 1100 | 11 |  | O=c1[nH]c(=S)n(Cc2ccccc2CNC2CCC2)c2cc[nH]c12 [Example 10, 1-{2-[(Cyclobutylamino)methyl]benzyl}-2-thioxo-1,2,3,5-tetrahydro-4H-pyrrolo[3,2-d]pyrimidin-4-one] |  | 
0.04 | 697 | 28 |  | NCc1cc(C(F)(F)F)ccc1Cn1c(=S)[nH]c(=O)c2[nH]ccc21 [Example 14, 1-[2-(Aminomethyl)-4-(trifluoromethyl)benzyl]-2-thioxo-1,2,3,5-tetrahydro-4H-pyrrolo[3,2-d]pyrimidin-4-one] |  | 
0.029 | 552 | 16 |  | O=c1[nH]c(=S)n(Cc2ccccc2CNCC2CCC2)c2cc[nH]c12 [Example 9, 1-(2-{[(Cyclobutylmethyl)amino]methyl}benzyl)-2-thioxo-1,2,3,5-tetrahydro-4H-pyrrolo[3,2-d]pyrimidin-4-one] |  | 
0.014 | 1357 | 19 |  | O=c1[nH]c(=S)n(Cc2ccccc2CNC2CCCC2)c2cc[nH]c12 [Example 11, 1-{2-[(Cyclopentylamino)methyl]benzyl}-2-thioxo-1,2,3,5-tetrahydro-4H-pyrrolo[3,2-d]pyrimidin-4-one] |  | 
 |  |  |  | O=c1[nH]c(=S)n(C[C@H]2CCCO2)c2nc[nH]c12 [AZD5904] |  | dose-dependently reduced urate levels
